Earlier results, collected in patent US20050009922A1, “Stable aqueous antimicrobial suspension” (priority 2001, published 2005).

Details: in water, 25° C., FIG. 1

N#CC(Br)(Br)C(N)=O [DBNPA, 2,2 dibromo 3-nitrilopropionamide]
pH of lowest rate of hydrolysis: < 4 pH
